Laboratory results: ChEMBL document CHEMBL5634097, “A review: FDA-approved fluorine-containing small molecules from 2015 to 2022” (Eur J Med Chem, 2023)

Key:
[1] = biological target: Spike glycoprotein (Severe acute respiratory syndrome coronavirus 2) (UniProt P0DTC2); assay: Binding affinity to SARS-Cov-2 Spike protein
[2] = biological target: Replicase polyprotein 1ab (Severe acute respiratory syndrome coronavirus 2) (UniProt P0DTD1); assay: Binding affinity to SARS-Cov-2 Main protease
[3] = biological target: Replicase polyprotein 1ab (Severe acute respiratory syndrome coronavirus 2) (UniProt P0DTD1); assay: Binding affinity to SARS-Cov-2 PLpro
[4] = biological target: Dual specificity mitogen-activated protein kinase kinase; MEK1/2 (Homo sapiens, UniProt P36507+Q02750); assay: Inhibition of MEK1/2 (unknown origin); type: protein assay
[5] = Inhibition of CGRP (unknown origin); parameters: species or system Homo sapiens
[6] = Half life in dog; type: ADME, Canis lupus familiaris; details: in vivo
[7] = Half life in rat; type: ADME; details: in vivo

Structure (SMILES): CNC(=O)c1ccc(-c2cnc3ncc(Cc4ccc5ncccc5c4)n3n2)cc1F
- K [1]: -7.7 kcal/mol
- K [2]: -9.3 kcal/mol
- K [3]: -7.7 kcal/mol

Structure (SMILES): Cn1cnc2c(F)c(Nc3ccc(Br)cc3F)c(C(=O)NOCCO)cc21 [BINIMETINIB]
- IC50 [4]: 12 nM

Structure (SMILES): CN1CCN2c3c(cccc31)[C@@H]1CN(CCCC(=O)c3ccc(F)cc3)CC[C@@H]12 [LUMATEPERONE]
- IC50 [5]: 0.14 nM
- half-life [6]: ≤ 30 h
- half-life [7]: ≤ 30 h
